The text below walks through data of ChEMBL document CHEMBL1133789, “The discovery of anthranilic acid-based MMP inhibitors. Part 1: SAR of the 3-position” (Bioorg Med Chem Lett, 2001).

The structures appear in SMILES notation. The source made the active and inactive calls.

In experiment [1] the target is T1, Matrix metalloproteinase-9 (Homo sapiens, UniProt P14780). Description: Inhibitory activity against Matrix metalloprotease-9.
Experiment [2] is filed under the species Bos taurus. As to the kind of experiment: animal or person. The settings on record: po, read-out: Inhibition.
Experiment [3] concerns the target T2, Interstitial collagenase (Homo sapiens) (UniProt P03956).
T2 sequence (whole entry): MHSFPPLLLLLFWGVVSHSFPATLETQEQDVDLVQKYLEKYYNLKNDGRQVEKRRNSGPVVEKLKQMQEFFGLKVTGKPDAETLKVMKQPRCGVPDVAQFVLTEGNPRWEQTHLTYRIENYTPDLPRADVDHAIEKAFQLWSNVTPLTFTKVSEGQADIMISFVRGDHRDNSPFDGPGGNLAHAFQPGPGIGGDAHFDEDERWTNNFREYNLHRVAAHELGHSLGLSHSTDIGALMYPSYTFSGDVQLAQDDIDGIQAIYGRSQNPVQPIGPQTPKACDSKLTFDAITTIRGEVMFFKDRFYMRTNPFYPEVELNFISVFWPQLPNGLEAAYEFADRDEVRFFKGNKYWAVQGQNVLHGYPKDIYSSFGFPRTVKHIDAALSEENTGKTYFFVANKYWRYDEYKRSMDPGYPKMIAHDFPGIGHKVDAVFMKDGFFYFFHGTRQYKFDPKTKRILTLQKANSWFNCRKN
Description: Inhibition of Matrix metalloprotease-1 at 1 uM.

The next experiment deals with Collagenase 3 (Homo sapiens, UniProt P45452).
In another experiment the target is T3, Interstitial collagenase (Homo sapiens, UniProt P03956).
T3 sequence (P03956 whole entry): T2 sequence (whole entry)
Description: Inhibitory activity against Matrix metalloprotease-1.

Experiment [4] concerns the target T2, Interstitial collagenase (Homo sapiens). Description: Inhibition of Matrix metalloprotease-1 (inactive).
For experiment [5], the species on record is Bos taurus. Description: Inhibition of collagen degradation in a bovine articular cartilage assay. In kind it is functional.
For experiment [6], the target named is T1, Matrix metalloproteinase-9. Description: Dose at which the compound was equipotent with CGS-27023 against matrix metalloprotease-9 in the dialysis tubing implant assay. It is filed as functional.
The next experiment relates to Rattus norvegicus. Description: In vivo inhibition of collagen degradation in a rat sponge wrapped cartilage model at a dose of 50 mg/kg ip. It is filed as functional. The settings on record: route intraperitoneal.
The target in experiment [7] is T1, Matrix metalloproteinase-9. Description: Tested the po dose effective against Matrix metalloprotease-9 in the dialysis tubing implant assay. In kind it is functional, organism-based.
In experiment [8] the target is Disintegrin and metalloproteinase domain-containing protein 17 (Homo sapiens, UniProt P78536).
Disintegrin and metalloproteinase domain-containing protein 17, sequence (P78536 whole entry, the tested form may be a part): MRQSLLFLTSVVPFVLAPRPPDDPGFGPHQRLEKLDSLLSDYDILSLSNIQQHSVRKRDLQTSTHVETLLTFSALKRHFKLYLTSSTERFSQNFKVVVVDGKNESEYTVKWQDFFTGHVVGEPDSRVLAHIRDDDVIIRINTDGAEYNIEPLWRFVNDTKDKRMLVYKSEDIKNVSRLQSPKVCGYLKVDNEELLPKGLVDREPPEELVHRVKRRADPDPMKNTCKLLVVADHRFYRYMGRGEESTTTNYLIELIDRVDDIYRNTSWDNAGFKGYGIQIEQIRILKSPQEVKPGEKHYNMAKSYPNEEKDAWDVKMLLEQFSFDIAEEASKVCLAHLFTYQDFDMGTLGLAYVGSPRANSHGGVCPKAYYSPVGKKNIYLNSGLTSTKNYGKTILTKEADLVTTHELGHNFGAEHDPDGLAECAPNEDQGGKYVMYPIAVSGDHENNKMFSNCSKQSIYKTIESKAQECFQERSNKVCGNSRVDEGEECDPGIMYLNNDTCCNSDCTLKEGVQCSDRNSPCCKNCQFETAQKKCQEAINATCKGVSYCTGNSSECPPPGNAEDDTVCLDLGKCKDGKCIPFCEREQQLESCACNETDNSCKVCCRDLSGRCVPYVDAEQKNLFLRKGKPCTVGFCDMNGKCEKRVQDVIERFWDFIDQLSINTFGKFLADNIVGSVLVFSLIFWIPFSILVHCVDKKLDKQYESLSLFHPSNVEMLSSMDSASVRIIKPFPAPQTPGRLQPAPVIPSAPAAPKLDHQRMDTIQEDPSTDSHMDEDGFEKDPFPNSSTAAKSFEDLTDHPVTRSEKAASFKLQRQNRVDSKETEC
Description: Inhibition of TNF-alpha converting enzyme (TACE)
For experiment [9], the target named is T2, Interstitial collagenase (Homo sapiens). As to the kind of experiment: Inhibition of Matrix metalloprotease-1 at 1 uM (inactive).

T1 sequence (P14780 whole entry): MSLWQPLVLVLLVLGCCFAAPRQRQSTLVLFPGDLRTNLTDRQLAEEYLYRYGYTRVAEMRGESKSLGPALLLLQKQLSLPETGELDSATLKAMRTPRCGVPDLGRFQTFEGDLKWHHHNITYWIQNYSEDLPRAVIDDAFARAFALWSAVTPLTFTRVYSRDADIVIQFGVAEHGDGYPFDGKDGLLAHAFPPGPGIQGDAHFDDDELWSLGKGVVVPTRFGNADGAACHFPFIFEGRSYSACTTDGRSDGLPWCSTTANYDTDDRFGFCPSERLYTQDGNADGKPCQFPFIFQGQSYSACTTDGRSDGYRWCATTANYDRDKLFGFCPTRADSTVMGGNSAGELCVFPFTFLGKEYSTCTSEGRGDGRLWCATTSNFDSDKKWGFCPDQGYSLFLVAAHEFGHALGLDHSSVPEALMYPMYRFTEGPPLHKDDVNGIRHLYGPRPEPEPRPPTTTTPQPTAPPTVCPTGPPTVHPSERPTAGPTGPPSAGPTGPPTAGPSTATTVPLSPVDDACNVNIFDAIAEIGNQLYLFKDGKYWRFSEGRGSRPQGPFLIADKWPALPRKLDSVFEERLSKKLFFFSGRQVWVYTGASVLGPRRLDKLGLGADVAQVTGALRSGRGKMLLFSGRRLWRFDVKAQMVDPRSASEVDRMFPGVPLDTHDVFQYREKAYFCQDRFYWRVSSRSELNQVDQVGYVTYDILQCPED
Description for Collagenase 3: Inhibitory activity against Matrix metalloprotease-13

Usually IC50 stands for the concentration needed to halve the response being measured. Read a high IC50 as a need for much substance. In experiment [1], `COC(=O)c1cccc(C(=O)NO)c1N(Cc1cccnc1)S(=O)(=O)c1ccc(OC)cc1` showed an IC50 of 0.006 µM.
Turning to `COc1ccc(S(=O)(=O)N(Cc2cccnc2)[C@@H](C(=O)NO)C(C)C)cc1` [CGS-27023A], the inhibition in vivo at 50 mg/kg in the experiment filed under Bos taurus [2] was 52%.
The term inhibition denotes the relative decrease from the control value, in per cent. On to `COc1ccc(S(=O)(=O)N(Cc2ccccc2)c2c(C(=O)NO)cccc2C(F)(F)F)cc1`, for which, in [3], the inhibition is 41%. For the same compound, the IC50 against Collagenase 3 was 0.136 µM.
As for `COc1ccc(S(=O)(=O)N(Cc2ccccc2)c2c(OC(C)(C)C(=O)NO)cccc2C(=O)NO)cc1`, the figures for the IC50 (against Interstitial collagenase; in experiment [1]) were 0.597 µM and 0.004 µM, respectively.
Take `COc1ccc(S(=O)(=O)N(Cc2ccccc2)c2c(OC)cccc2C(=O)NO)cc1`: the IC50 against Interstitial collagenase is 0.52 µM. That is a sub-micromolar value.
As for `COc1ccc(S(=O)(=O)N(Cc2ccccc2)c2c(C(=O)NO)cccc2[N+](=O)[O-])cc1`, the results for the IC50 (on Interstitial collagenase; against Collagenase 3; in [1]) were 0.202 µM, 0.042 µM and 0.013 µM, respectively.
In the case of `COc1ccc(S(=O)(=O)N(Cc2ccccc2)c2ccc(C(=O)NO)cc2)cc1`, the inhibition result in experiment [4] was “inactive”.
With `COc1ccc(S(=O)(=O)N(Cc2ccccc2)c2c(C(=O)NO)cccc2N(C)C)cc1`, the inhibition in experiment [3] stood at 19%.
As usually defined, the Inhibition is the drop in the measured response relative to a control, in per cent. The low end stands for a weak effect, the high end for a strong effect. A word on the ED50: it is the dose at which the effect has come halfway, by size or by number of responders. Low values mean an effect at a small dose, high ones a need for a large dose. As for `COc1ccc(S(=O)(=O)N(Cc2cccnc2)c2c(C)cccc2C(=O)NO)cc1`, the Inhibition in the experiment filed under Bos taurus [5] turned out to be 49%. The DOSE in experiment [6] is 50 mg/kg. For the same compound, on Interstitial collagenase, the IC50 came to 0.143 µM. This compound had an inhibition in vivo at 50 mg/kg in the experiment with Rattus norvegicus of 51%. In addition, the ED50 in experiment [7] was found to be 33 mg/kg.
`COc1ccc(S(=O)(=O)N(Cc2ccccc2)c2c(OCC(=O)NO)cccc2C(=O)NO)cc1`: the IC50 in [8] is 0.081 µM; at Collagenase 3 it was 0.001 µM; in experiment [1], 0.002 µM.
In the case of `COc1ccc(S(=O)(=O)N(Cc2ccccc2)c2cccc(C(=O)NO)c2)cc1`, the inhibition result in experiment [9] was “inactive”.
